# Laboratory results from patent publication US5235061A, “Fungicidal (1H-1,2,4-triazolyl)disilaalkanes” (priority 1991, dated 1993).
# Where “and” joins values, the source holds several entries; their conditions need not be identical. Identical values can stand only once.
# How the values were obtained:
# Assay in all cases: In vitro percent disease control (radii of spore growth on agar)
# Assay type in all cases: cell-based
# Alternaria mali = conditions: for inhibition of growth at 50 ppm / inhibition of growth at 100 ppm: Alternaria mali, read-out: % controlled, Al.
# Method: (§1) The compounds of this invention were dissolved respectively in acetone in an amount equal to 10% of the final volume and then in purified water at the concentration of 100 ppm and 50 ppm.
# (§2) Each of the solution was mixed with potato-sucrose-agar medium in a 6" petri dish and one of the fungi was spotted at the center of the dish. The dish was incubated in growth room for several days. The percent disease control was derived from the radii of spore growth. The screening tests in vitro condition are well-known to those skilled in the art.
# (§3) The following fungi were used for the screening.
# Rhizopus sp. = conditions: for inhibition of growth at 50 ppm / inhibition of growth at 100 ppm: Rhizopus, read-out: % controlled, Rhi. sp.
# Method: as §1, §2, §3
# Physalospora baccae = conditions: for inhibition of growth at 50 ppm / inhibition of growth at 100 ppm: read-out: % controlled, Phy ba.
# Method: as §1, §2, §3
# 3) Phy. ba.; Physalospora baccae
# Botry tris cinerea = conditions: for inhibition of growth at 50 ppm / inhibition of growth at 100 ppm: read-out: % controlled, Bo ci.
# Method: as §1, §2, §3
# 10) Bo.ci.; Botry tris cinerea
# [1] = test system: Botryosphaeria dothidea Macrophoma sp.; conditions: for inhibition of growth at 50 ppm / inhibition of growth at 100 ppm: Botryosphaeria dothidea, read-out: % controlled, Bo.do (Ma.)
# Method: as §1, §2, §3
# 4) Bo.do(Ma); Botryosphaeria dothidea Macrophoma sp.
# Glomerella cingulata = conditions: for inhibition of growth at 50 ppm / inhibition of growth at 100 ppm: Colletotrichum gloeosporioides, read-out: % controlled, Glo.
# Method: as §1, §2, §3
# 5) Glo.; Glomerella cingulata
# Phytophthora capsisi = conditions: Phytophthora, read-out: % controlled, Phy ca.
# Method: as §1, §2, §3
# 2) Phy. ca.; Phytophthora capsisi
# Pyricalaria oryzae = conditions: for inhibition of growth at 50 ppm: read-out: % controlled, Py. or., 50 ppm; for inhibition of growth at 100 ppm: read-out: % controlled, Py. or., 100 ppm
# Method: as §1, §2, §3
# 6) Py.or.; Pyricalaria oryzae
# Fusarium moniliforme = test system: Fusarium moniliforme
# Method: as §1, §2, §3
# 8) Fu.mo.; Fusarium moniliforme
# Rhizoctonia solani = conditions: for inhibition of growth at 50 ppm / inhibition of growth at 100 ppm: Rhizoctonia solani, read-out: % controlled, Rhy. so.
# Method: as §1, §2, §3
# 7) Rhi.so.; Rhizoctonia solani
Compound,inhibition of growth at 50 ppm (Alternaria mali; 50 ppm),inhibition of growth at 100 ppm (Alternaria mali; 100 ppm),inhibition of growth at 50 ppm (Rhizopus sp.; 50 ppm),inhibition of growth at 100 ppm (Rhizopus sp.; 100 ppm),inhibition of growth at 50 ppm (Physalospora baccae; 50 ppm),inhibition of growth at 100 ppm (Physalospora baccae; 100 ppm),inhibition of growth at 50 ppm (Botry tris cinerea; 50 ppm),inhibition of growth at 100 ppm (Botry tris cinerea; 100 ppm),inhibition of growth at 50 ppm ([1]; 50 ppm),inhibition of growth at 100 ppm ([1]; 100 ppm),inhibition of growth at 50 ppm (Glomerella cingulata; 50 ppm),inhibition of growth at 100 ppm (Glomerella cingulata; 100 ppm),inhibition of growth at 50 ppm (Phytophthora capsisi),inhibition of growth at 100 ppm (Phytophthora capsisi),inhibition of growth at 50 ppm (Pyricalaria oryzae),inhibition of growth at 100 ppm (Pyricalaria oryzae),"% controlled, Fu. mo. (Fusarium moniliforme; 50 ppm)","% controlled, Fu. mo. (Fusarium moniliforme; 100 ppm)",inhibition of growth at 50 ppm (Rhizoctonia solani; 50 ppm),inhibition of growth at 100 ppm (Rhizoctonia solani; 100 ppm),other results
C=CC[Si](C[Si](C)(Cn1cncn1)c1ccc(F)cc1)(c1ccccc1)c1ccc(-c2ccccc2)cc1 (stereo not drawn),78%,100%,100%,100%,100%,100%,86%,100%,100%,100%,100%,100%,27%,50%,85%,100%,100%,100%,–,–,–
"2-(4-chlorophenyl)-2-(4-fluorophenyl)-2,4-dimethyl-1-(1H-1,2,4-triazol-1-yl)pentane",–,–,–,–,–,–,–,–,–,–,–,–,–,–,–,–,46%,46%,–,–,"% controlled, Al. (Alternaria mali; 50 ppm): 75%; % controlled, Al. (Alternaria mali; 100 ppm): 79%; % controlled, Rhi. sp. (Rhizopus sp.; 50 ppm): 50%; % controlled, Rhi. sp. (Rhizopus sp.; 100 ppm): 50%; % controlled, Phy ba. (Physalospora baccae; 50 ppm): 69%; % controlled, Phy ba. (Physalospora baccae; 100 ppm): 69%; % controlled, Bo ci. (Botry tris cinerea; 50 ppm): 90%; % controlled, Bo ci. (Botry tris cinerea; 100 ppm): 90%; % controlled, Bo.do (Ma.) ([1]; 50 ppm): 79%; % controlled, Bo.do (Ma.) ([1]; 100 ppm): 79%; % controlled, Glo. (Glomerella cingulata; 50 ppm): 87%; % controlled, Glo. (Glomerella cingulata; 100 ppm): 87%; % controlled, Rhy. so. (Rhizoctonia solani; 50 ppm): 96%; % controlled, Rhy. so. (Rhizoctonia solani; 100 ppm): 96%; % controlled, Py. or. (Pyricalaria oryzae; 50 ppm): 100%; % controlled, Py. or. (Pyricalaria oryzae; 100 ppm): 100%"
"C[Si](C)(C)C[Si](Cn1cncn1)(c1ccc(F)cc1)c1ccc(F)cc1 [2,2-bis(4-fluorophenyl)-4,4-dimethyl-2,4-disila-1-(1H-1,2,4-triazol-1-yl)pentane]",32%,35%,24%,29%,20%,24%,–,–,31%,37%,60%,67%,6%,6%,57%,61%,31%,34%,60%,67%,–
"C[Si](C)(C[Si](Cn1cncn1)(c1ccc(F)cc1)c1ccc(-c2ccccc2)cc1)c1ccc(F)cc1 (stereo not drawn) [2,4-bis(4-fluorophenyl)-2-(4-phenylphenyl)-4-methyl-2,4-disila-1-(1H-1,2,4-triazol-1-yl)pentane]",–,–,–,–,–,–,–,–,–,–,87%,87%,12%,14%,–,–,46% and 41%,46% and 45%,–,–,"% controlled, Al. (Alternaria mali; 50 ppm): 75% and 38%; % controlled, Al. (Alternaria mali; 100 ppm): 79% and 46%; % controlled, Bo ci. (Botry tris cinerea; 100 ppm): 90% and 47%; % controlled, Bo.do (Ma.) ([1]; 50 ppm): 79% and 43%; % controlled, Bo.do (Ma.) ([1]; 100 ppm): 79% and 51%; % controlled, Glo. (Glomerella cingulata; 50 ppm): 76%; % controlled, Glo. (Glomerella cingulata; 100 ppm): 78%; % controlled, Py. or. (Pyricalaria oryzae; 50 ppm): 100% and 50%; % controlled, Py. or. (Pyricalaria oryzae; 100 ppm): 100% and 50%"
"C[Si](C)(C[Si](C)(Cn1cncn1)c1ccc(F)cc1)c1ccc(-c2ccccc2)cc1 (stereo not drawn) [2-(4-fluorophenyl)-4-(4-phenylphenyl)2,4-dimethyl-2,4-disila-1-(1H-1,2,4-triazol-1-yl)pentane]",75%,79%,50%,50%,69%,69%,90%,90%,79%,79%,87%,87%,–,–,100%,100%,46%,46%,96%,96%,–
"C=CC[Si](Cn1cncn1)(C[Si](CC=C)(c1ccc(F)cc1)c1ccc(-c2ccccc2)cc1)c1ccc(F)cc1 (stereo not drawn) [4,6-(4-fluorophenyl)-6-(4-phenylphenyl)-4,6-disila-4-(1H-1,2,4-triazol-1-ylmethyl)-1,8-nonadiene]",62%,65%,56%,56%,60%,65%,–,–,79%,79%,85%,87%,75%,75%,100%,100%,40%,46%,90%,96%,–
"C=CC[Si](Cn1cncn1)(C[Si](CC=C)(c1ccccc1)c1ccc(-c2ccccc2)cc1)c1ccc(F)cc1 (stereo not drawn) [4-(4-fluorophenyl)-6-phenyl-6-(4-phenylphenyl)-4,6-disila-4-(1H-1,2,4-triazol-1-ylmethyl)-1,8-nonadiene]",72%,78%,50%,58%,65%,69%,90%,90%,–,–,80%,86%,70%,72%,100%,100%,61%,65%,60%,90%,–
"C=CC[Si](C)(Cn1cncn1)C[Si](CC=C)(c1ccc(OCC)cc1)c1ccc(OCC)cc1 (stereo not drawn) [6,6-bis(4-ethoxyphenyl)-4-methyl-4,6-disila-4-(1H-1,2,4-triazol-1-ylmethyl)-1,8-nonadiene]",100%,100%,80%,80%,–,–,100%,100%,70%,72%,100%,100%,55%,60%,100%,100%,100%,100%,100%,100%,–
"C=CC[Si](CC=C)(Cn1cncn1)C[Si](CC=C)(c1ccc(F)cc1)c1ccc(-c2ccccc2)cc1 (stereo not drawn) [6-(4-fluorophenyl)-6-(4-phenylphenyl)-4-(2-propenyl)-4,6-disila-4-(1H-1,2,4-triazol-1-ylmethyl)-1,8-nonadiene]",100%,100%,100%,100%,100%,100%,100%,100%,100%,100%,100%,100%,40%,50%,100%,100%,–,–,100%,100%,–
"C=CC[Si](CC=C)(Cn1cncn1)C[Si](CC=C)(CC=C)c1ccccc1 [6-phenyl-4,6-bis(2-propenyl)-4,6-disila-4-(1H-1,2,4-triazol-1-ylmethyl)-1,8-nonadiene]",75%,79%,50%,50%,60%,69%,80%,96%,65%,70%,70%,87%,60%,70%,60%,90%,46%,46%,–,–,–
